Experimental data as given in US12678388B2, “Dermatological compositions and use thereof” (BONE SCI. BIO LTD., priority 2021, dated 2026).
Peptide text beside a SMILES is read from it.

What was measured:
Assay type in all cases: in vivo
rats = experiment: Tissue augmentation in subcutaneous rat model; details: PFD5 3.5% w/v
Experimental: The effect of PFD5 3.5% w/v hydrogel on tissue augmentation was tested in a subcutaneous rat model and compared to the effect obtained in rats treated with a commercially available hyaluronic acid dermal filler. Individual rats were treated with 0.2 ml of PFD5 hydrogel or HA injection administered subcutaneously above the parietal bone. Animals were held for three days, one month and four months after which implants were excised and underwent histological examination and analysis for the area occupied by the implant. […] Due to the lower swellability of the PFD5 hydrogel as compared to the HA hydrogel, the area remained more invariable.

albino rabbits [1] = experiment: Intracutaneous reactivity test; details: for primary irritation index (Treated-Control): 0.2 ml intracutaneous; for erythema and oedema at treated sites: 24, 48 and 72 hours, same in vehicle control sites
Experimental: In order to test the potential irritation effects of the formulation according to certain embodiments of the present invention, an intracutaneous reactivity test was performed. Two extracts of a 3% w/v PFD5 hydrogel sample, one in a non-polar vehicle, cottonseed oil, and one in a polar vehicle, sodium chloride injection (0.9%), were prepared by immersing the sample in the relative solvents in order to reach a weight/volume ratio of 0.2 g/ml and incubating at 37±1° C. for 72±2 h in dynamic conditions (orbital stirrer). 0.2 ml of the two extracts and 0.2 ml of the respective solvents were intracutaneously injected in five sites of 3 albino rabbits, and macroscopical skin reactions, as erythema, oedema and eschar were evaluated. No abnormalities immediately after intradermal injection of sodium chloride injection extract and sodium chloride injection (vehicle control) were observed. […] The primary irritation index in sodium chloride injection (Treated-Control) was 0.00. No abnormalities immediately after intradermal injection of cottonseed oil extract and cottonseed oil (vehicle control) were observed. […] The primary irritation index in cottonseed oil (Treated-Control) was 0.00.

albino rabbits [2] = experiment: Implantation test (local implantation effects, femur); details: 3% w/v PFD5 formulation
Experimental: In order to test the local implantation effects of a 3% w/v PFD5 formulation according to certain embodiments of the present invention, an implantation test was performed.
10 albino rabbits were used for the test: each animal was implanted with the test sample at the right femur and with negative control (USP reference standard control plastic, HDPE) at the left femur, for a total of two sites/animal.
One explant time was scheduled after 4 weeks. Animals were daily submitted to general objective exam with the purpose to detect possible local effects due to the sample. The behavior of animals was observed and all abnormalities were recorded. During the explant, all implanted sites with the test sample and with the negative control were harvested and observed macroscopically to determine any injuries. Implantation sites of each animal and local lymph nodes were preserved in formalin 10% buffer solution and used for histological evaluation. […] Nothing abnormal was detected macroscopically in both treated and control sites of all animals.

## O=C(O)C[C@H](NC(=O)[C@@H]1CCCN1)C(=O)N[C@@H](Cc1ccccc1)C(=O)N[C@@H](CC(=O)O)C(=O)N[C@@H](Cc1ccccc1)C(=O)N[C@@H](CC(=O)O)C(=O)N[C@@H](Cc1ccccc1)C(=O)N[C@@H](CC(=O)O)C(=O)N[C@@H](Cc1ccccc1)C(=O)N[C@@H](CC(=O)O)C(=O)N[C@@H](Cc1ccccc1)C(=O)N[C@@H](CC(=O)O)C(=O)N1CCC[C@H]1C(=O)O [PFD5, Pro-(Asp-Phe)5-Asp-Pro] (H-PDFDFDFDFDFDP-OH)
rats
  adverse tissue reaction (histology): deprived of multinucleated giant cells or other adverse effects to nearby tissue
Albino rabbits [1]; cottonseed oil extract of 3% w/v PFD5 hydrogel
  primary irritation index (Treated-Control): 0.00
Albino rabbits [1]; cottonseed oil extract
  erythema and oedema at treated sites: a slight erythema and a slight oedema
Albino rabbits [1]; sodium chloride injection extract of 3% w/v PFD5 hydrogel
  primary irritation index (Treated-Control): 0.00
Albino rabbits [1]; sodium chloride injection extract
  erythema and oedema at treated sites: no signs of erythema or oedema
Albino rabbits [2]; 4 weeks
  inflammatory responses or necrosis at the sites of implantation: no inflammatory responses or necrosis
Albino rabbits [2]; 4 weeks after implantation, control HDPE
  local effects compared to the negative control: Minimal local effects
